Results from EP0447186A1, “N-acylated cyclohexapeptide compounds” (MERCK & CO. INC., priority 1990, dated 1991).
Starred links: 1 amine or outer side, 2 acyl side, 3 side chain; linkers in the order of their positions; H or OH if unused. Positions of bridges follow the written chain, without caps; N, C: chain ends. Non-standard residues stand in square brackets, D forms with d. Residues, ends and D or L forms follow the SMILES beside them. ξ: configuration not given here. ξOrn(4,5-diOH) = O=C(C(CC(O)C(O)N[*:3])N[*:1])[*:2]; ξhTyr(βξ-OH,γξ-OH) = NC(C(=O)O)C(O)C(O)c1ccc(O)cc1; X1 = NC(=O)CC(O)C(N[*:1])C(=O)[*:2]; X2 = O=C(C1C(O)CCN1[*:1])[*:2]; Hyp = O=C(O)[CH]1C[CH](O)CN1

System: Candida albicans
Experiment: Candida albicans bioassay
Type: cell-based
Conditions: bioassay used to monitor HPLC fractions
Method: In carrying out the reaction, Compound A, either as a purified compound or as a partially purified sample obtained from the deacylation of Compound B, is dissolved in dry dimethylformamide and the resulting solution intimately contacted with RCOX. The order of addition is not critical. The resulting mixture is stirred at room temperature for about 16 to 20 hours (conveniently overnight) whereupon a reaction takes place with the formation of Compound I. At the end of this period, the dimethylformamide is removed by concentrating in vacuo at 40°C and the resulting residue triturated, preferably sequentially, twice with ether, and then filtered. The filter cake product is generally a free flowing solid and is purified by reverse phase HPLC, typically in 0.5 gram aliquots employing acetonitrile/water as eluting agent. Fractions containing the purified product as determined by C. albicans assay, by U.V. or by refractive index are combined and first concentrated under reduced pressure and then lyophilized to separate the product.

## CC(O)C1NC(=O)C(N)CC(O)C(O)NC(=O)C2C(O)CCN2C(=O)C(C(O)CC(N)=O)NC(=O)C(C(O)C(O)c2ccc(O)cc2)NC(=O)C2CC(O)CN2C1=O (stereo not drawn) [non-acylated cyclohexapeptide compound] (H-[ξOrn(4,5-diOH)]T[Hyp][ξhTyr(βξ-OH,γξ-OH)][X1][X2]; lactam 1-C; configuration not given here)
  activity against Candida albicans: inactive
